Test results as given in patent publication US20250179013A1, “INHIBITORS OF RNA HELICASE DHX9 AND USES THEREOF” (ACCENT THERAPEUTICS, INC., priority 2022, published 2025).
Where two headings read alike, the source gives them in different places.

What was measured:
[1] = molecular target: T1, Human recombinant DHX9 protein (Homo sapiens, UniProt Q08211); test: DHX9 ATPase assay (ADP-Glo biochemical assay); conditions: for DHX9 Biochemical Max Inhibition: maximum inhibition in ATPase assay, 10 μM Aurintricarboxylic acid = 100%
T1 construct: purchased Viva
T1 sequence (Q08211 whole entry): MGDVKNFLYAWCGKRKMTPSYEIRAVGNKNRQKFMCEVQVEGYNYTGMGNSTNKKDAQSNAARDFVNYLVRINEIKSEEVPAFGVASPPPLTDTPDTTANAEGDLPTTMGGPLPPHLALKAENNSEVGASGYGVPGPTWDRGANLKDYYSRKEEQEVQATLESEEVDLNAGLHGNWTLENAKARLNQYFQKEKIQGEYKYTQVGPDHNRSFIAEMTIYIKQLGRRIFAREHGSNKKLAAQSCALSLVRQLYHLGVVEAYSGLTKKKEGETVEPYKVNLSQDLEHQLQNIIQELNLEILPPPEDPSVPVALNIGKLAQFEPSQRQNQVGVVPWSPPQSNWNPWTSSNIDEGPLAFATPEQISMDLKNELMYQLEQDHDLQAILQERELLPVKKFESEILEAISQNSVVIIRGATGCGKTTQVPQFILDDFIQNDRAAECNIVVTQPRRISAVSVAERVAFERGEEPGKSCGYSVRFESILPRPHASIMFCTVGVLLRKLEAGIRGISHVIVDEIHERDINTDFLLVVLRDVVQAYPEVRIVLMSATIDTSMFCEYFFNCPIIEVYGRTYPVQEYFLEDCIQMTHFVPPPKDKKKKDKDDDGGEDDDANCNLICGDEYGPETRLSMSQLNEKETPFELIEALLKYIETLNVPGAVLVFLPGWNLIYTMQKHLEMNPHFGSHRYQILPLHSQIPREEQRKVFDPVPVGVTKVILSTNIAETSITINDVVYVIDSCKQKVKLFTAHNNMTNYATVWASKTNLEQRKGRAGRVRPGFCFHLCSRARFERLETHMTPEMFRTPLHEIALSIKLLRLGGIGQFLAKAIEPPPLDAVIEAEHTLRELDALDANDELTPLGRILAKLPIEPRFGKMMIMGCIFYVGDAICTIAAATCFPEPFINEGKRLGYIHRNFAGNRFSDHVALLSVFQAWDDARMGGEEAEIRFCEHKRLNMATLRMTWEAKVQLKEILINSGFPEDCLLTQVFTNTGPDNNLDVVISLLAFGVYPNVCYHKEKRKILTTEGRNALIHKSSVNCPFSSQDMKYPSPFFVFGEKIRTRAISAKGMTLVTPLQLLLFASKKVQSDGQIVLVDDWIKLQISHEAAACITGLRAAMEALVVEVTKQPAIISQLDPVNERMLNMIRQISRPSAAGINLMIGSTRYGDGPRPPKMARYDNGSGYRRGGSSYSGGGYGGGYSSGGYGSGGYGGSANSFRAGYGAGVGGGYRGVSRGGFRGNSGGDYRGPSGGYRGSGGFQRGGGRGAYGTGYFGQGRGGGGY

[2] = tested on: DHX9 (circBRIP1 mRNA in HCT116 cells); test: DHX9 circBRIP1 Cellular Target Engagement SYBR Green Assay; type: cell-based; conditions: 72 hours
LS411N cells = test: DHX9 Cellular Proliferation Assay (CellTiter-Glo), LS411N; type: cell-based; conditions: Homo sapiens, LS-411N, 120 hours, read-out: LS411N (CRC-MSI-H) Antiproliferative IC50
NCI-H747 cells = test: DHX9 Cellular Proliferation Assay (CellTiter-Glo), NCI-H747; type: cell-based; conditions: Homo sapiens, 120 hours, read-out: H747 (CRC-MSS) Antiproliferative IC50
[3] = tested on: DHX9 (circBRIP1 mRNA in HCT116 cells); test: DHX9 circBRIP1 Cellular Target Engagement TaqMan Multiplex Assay; type: cell-based; conditions: Homo sapiens, HCT-116, TaqMan Multiplex Assay (footnote *), circBRIP1 qPCR, 72 hours
[4] = read-out: DHX9 Biochemical Inflection Point
[5] = Homo sapiens, HCT-116, circBRIP1 qPCR

DHX9 Biochemical Max Inhibition [1]	IC50 [1, 4]	EC50 [2, 5]	Structure (SMILES)	also measured
70.7%	41.9 nM	25300 nM	CS(=O)(=O)Nc1cccc(NC(=O)c2cc(-c3ccccc3O)cs2)c1 [Example 57]	–
69.2%	55.8 nM	3120 nM	CS(=O)(=O)Nc1cccc(NC(=O)c2cc(-c3cccc(N)c3)cs2)c1 [Example 58]	–
69.2%	76.6 nM	10900 nM	Cc1ncccc1-c1csc(C(=O)Nc2cccc(NS(C)(=O)=O)c2)c1 [Example 60]	–
60.8%	271 nM	> 30000 nM	CS(=O)(=O)Nc1cccc(NC(=O)c2cc(-c3cncnc3)cs2)c1 [Example 62]	–
66.9%	121 nM	18800 nM	CCOc1ncc(-c2csc(C(=O)Nc3cccc(NS(C)(=O)=O)c3)c2)cn1 [Example 63]	–
66.9%	41.8 nM	8560 nM	Cc1ccc(-c2csc(C(=O)Nc3cccc(NS(C)(=O)=O)c3)c2)cn1 [Example 65]	–
71.3%	87.5 nM	> 30000 nM	CS(=O)(=O)Nc1cccc(NC(=O)c2cc(-c3cccnn3)cs2)c1 [Example 66]	–
75.6%	16.3 nM	4790 nM	CS(=O)(=O)Nc1cccc(NC(=O)c2cc(-c3ncccc3O)cs2)c1 [Example 69]	–
71.2%	32.2 nM	4370 nM	CS(=O)(=O)Nc1cccc(NC(=O)c2cc(-c3c(O)cccc3F)cs2)c1 [Example 70]	–
64.4%	494 nM	> 30000 nM	CC(C)(C)OC(=O)Nc1cccc(-c2csc(C(=O)Nc3cccc(NS(C)(=O)=O)c3)c2)c1 [Example 72]	–
63.7%	109 nM	6150 nM	CS(=O)(=O)Nc1cccc(NC(=O)c2cc(-c3cccc(O)c3)cs2)c1 [Example 73]	–
70.1%	82.1 nM	8280 nM	Cc1ccc(O)cc1-c1csc(C(=O)Nc2cccc(NS(C)(=O)=O)c2)c1 [Example 75]	–
72.3%	89.4 nM	2040 nM	CS(=O)(=O)Nc1cccc(NC(=O)c2cc(-c3ccccc3OCc3ccccc3)cs2)c1 [Example 77]	–
71.2%	467 nM	> 30000 nM	Cn1nc(C(=O)Nc2cccc(NS(C)(=O)=O)c2)cc1-c1ccc(O)cc1 [Example 79]	–
68.3%	1070 nM	> 30000 nM	CS(=O)(=O)Nc1cccc(NC(=O)c2cc(-c3ccccn3)n[nH]2)c1 [Example 81]	–
73.1%	17.3 nM	917 nM	Cc1cccnc1-c1csc(C(=O)Nc2cccc(NS(C)(=O)=O)c2)c1 [Example 83]	–

DHX9 Biochemical Max Inhibition [1]	IC50 [1, 4]	EC50 [2, 5]	Structure (SMILES)	also measured
71.4%	12.5 nM	4840 nM	CS(=O)(=O)Nc1cccc(NC(=O)c2cc(-c3ncccn3)cs2)c1 [Example 84]	–
70.7%	19.5 nM	1390 nM	CS(=O)(=O)Nc1cccc(NC(=O)c2cc(-c3cccc(N)n3)cs2)c1 [Example 85]	–
71.1%	45.3 nM	19500 nM	CS(=O)(=O)Nc1cccc(NC(=O)c2cc(-c3cc(N)ccn3)cs2)c1 [Example 86]	–
77.2%	22.6 nM	≥ 30000 nM	CS(=O)(=O)Nc1cccc(NC(=O)c2cc(-c3cc(C(=O)O)ccn3)cs2)c1 [Example 87]	–
68.2%	65.4 nM	10500 nM	CS(=O)(=O)Nc1cccc(NC(=O)c2cc(-c3ccccc3N)cs2)c1 [Example 88]	–
76.4%	9.7 nM	1030 nM	CS(=O)(=O)Nc1cccc(NC(=O)c2cc(-c3ncccc3N)cs2)c1 [Example 89]	–
61.2%	19000 nM	> 30000 nM	CS(=O)(=O)Nc1cccc(NC(=O)c2nc(-c3ccccn3)c[nH]2)c1 [Example 90]	–
75.5%	55.4 nM	> 30000 nM	CS(=O)(=O)Nc1cccc(NC(=O)c2cc(-c3cc(C(N)=O)ccn3)cs2)c1 [Example 92]	–
74%	39.9 nM	11500 nM	CC(=O)Nc1ccccc1-c1csc(C(=O)Nc2cccc(NS(C)(=O)=O)c2)c1 [Example 93, 4-(2-acetamidophenyl)-N-(3-(methylsulfonamido)phenyl)thiophene-2-carboxamide]	–
71.2%	125 nM	> 30000 nM	CC(=O)Nc1cccnc1-c1csc(C(=O)Nc2cccc(NS(C)(=O)=O)c2)c1 [Example 94]	–
73.1%	7.6 nM	> 30000 nM	CC(=O)N1CCN(c2ccc(-c3csc(C(=O)Nc4cccc(NS(C)(=O)=O)c4)c3)nc2)CC1 [Example 95]	–
70%	24.7 nM	4320 nM	CCS(=O)(=O)Nc1cccc(NC(=O)c2cc(-c3ccccn3)cs2)c1 [Example 97]	–
65.8%	333 nM	28500 nM	CS(=O)(=O)Nc1cccc(NC(=O)c2cc(-c3ccccc3)c(C#N)s2)c1 [Example 100, 5-cyano-N-(3-(methylsulfonamido)phenyl)-4-phenylthiophene-2-carboxamide]	–
69.7%	123 nM	16600 nM	CNC(=O)c1sc(C(=O)Nc2cccc(NS(C)(=O)=O)c2)cc1-c1ccccc1 [Example 152]	–
77.9%	43.2 nM	5910 nM	CS(=O)(=O)Nc1cccc(NC(=O)c2cc(-c3ccccc3)c(CO)s2)c1 [Example 153, 5-(hydroxymethyl)-N-(3-(methylsulfonamido)phenyl)-4-phenylthiophene-2-carboxamide]	–
89.6%	28.4 nM	–	Cn1cc(C(=O)Nc2cccc(NS(C)(=O)=O)c2)cc1-c1ccc(N2CC(F)(F)C2)cn1 [Example 160, 5-[5-(3,3-difluoroazetidin-1-yl)pyridin-2-yl]-N-(3-methanesulfonamidophenyl)-1-methylpyrrole-3-carboxamide]	IC50 (LS411N cells): 9450 nM; IC50 (NCI-H747 cells): > 10000 nM; EC50 [3]: 1410 nM

Structure (SMILES)	DHX9 Biochemical Max Inhibition [1]	IC50 [1, 4]	EC50 [2, 5]	also measured
Cc1c(O)cccc1-c1csc(C(=O)Nc2cccc(NS(C)(=O)=O)c2)c1 [Example 74, 4-(3-hydroxy-2-methylphenyl)-N-(3-(methylsulfonamido)phenyl)thiophene-2-carboxamide]	71.4%	80.6 nM	≥ 30000 nM	–
CS(=O)(=O)Nc1cccc(NC(=O)c2cc(-c3ccc(N4CCNCC4)cn3)cs2)c1 [Example 91, N-(3-(methylsulfonamido)phenyl)-4-(5-(piperazin-1-yl)pyridin-2-yl)thiophene-2-carboxamide]	74.6%	7.2 nM	7630 nM	–
CCS(=O)(=O)Nc1cccc(NC(=O)c2cc(-c3ccccc3)cs2)c1 [Example 96, N-(3-(ethylsulfonamido)phenyl)-4-phenylthiophene-2-carboxamide]	59.6%	89.9 nM	22200 nM	–
CS(=O)(=O)Nc1cccc(NC(=O)c2cc(-c3ccccc3)c(C(F)(F)F)s2)c1 [Example 99, N-(3-(methylsulfonamido)phenyl)-4-phenyl-5-(trifluoromethyl)thiophene-2-carboxamide]	35.8%	716 nM	> 30000 nM	–
CS(=O)(=O)Nc1cccc(NC(=O)c2cc(C(=O)Nc3ccccc3)cs2)c1 [Example 102, N2-(3-(methylsulfonamido)phenyl)-N4-phenylthiophene-2,4-dicarboxamide]	72.5%	–	18900 nM	IC50 [1]: 159 nM
CS(=N)(=O)Nc1cccc(NC(=O)c2cc(-c3ccccc3)cs2)c1 (centres unmarked) [Example 157, N-(3-(methylsulfonoamidimidamido)phenyl)-4-phenylthiophene-2-carboxamide]	68.6%	–	–	IC50 ([1]; inflection point (IP) of four-parameter fit, reported instead of IC50, ATPase, dsRNA substrate, 1 h room temperature, read-out: DHX9 Biochemical Inflection Point): 205 nM; EC50 ([2]; circBRIP1 qPCR): > 30000 nM
CS(=O)(=O)Nc1cc(C=O)cc(NC(=O)c2cc(-c3ccccc3)cs2)c1 [Example 159, N-(3-formyl-5-(methylsulfonamido)phenyl)-4-phenylthiophene-2-carboxamide]	50.7%	690 nM	> 10000 nM	–
